Source: US9079866B2, “Flap modulators” (JANSSEN PHARMACEUTICA NV, priority 2013, dated 2015)
pIC50, pKi: −log10 of the molar value. Structures can show the parent of a compound that is named as a salt. Where two headings read alike, the source gives them in different places.

Legend:
human FLAP = human FLAP (Homo sapiens (Human), UniProt P20292); experiment: FLAP binding assay (HTRF format)
Method in brief: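 Samples were run in duplicate on each of two assay plates, the results were averaged, and the signal was expressed as an HTRF ratio.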

[1] = system: leukotriene pathway in human whole blood (LTB4 levels); experiment: Human whole blood assay (A23187-stimulated LTB4); assay type: cell-based; details: Homo sapiens, human whole blood diluted 1:1, A23187-stimulated; read-out: LTB4 IC50 1:1
Method in brief: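 Single-replicate data from at least one healthy donor: compound pre-incubated 15 min at 37° Celsius in 1:1 RPMI-diluted heparinised blood, followed by 30 min calcium ionophore A23187 (7 μg/mL) challenge at 37° Celsius. LTB4 in plasma quantified by kit; IC50 via 4-parameter equation.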

[2] = read-out: FLAP Binding wild type HTRF Ki

human FLAP, sequence (P20292 whole entry): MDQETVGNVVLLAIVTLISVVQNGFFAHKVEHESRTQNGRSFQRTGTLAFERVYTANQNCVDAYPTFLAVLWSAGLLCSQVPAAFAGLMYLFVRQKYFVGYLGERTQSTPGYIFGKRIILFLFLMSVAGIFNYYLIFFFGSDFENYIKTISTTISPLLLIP

pKi (human FLAP; wild type FLAP, HTRF format)	pIC50 [1]	SMILES	pKi (human FLAP; [2])
7.76	6.28	Nc1cnc(-c2ccc(-c3cccnc3OC3CCOCC3)cc2F)cn1 [Example 653, 5-{2-Fluoro-4-[2-(tetrahydro-2H-pyran-4-yloxy)pyridin-3-yl]phenyl}pyrazin-2-amine]	–
6.89	5.98	Nc1ncc(-c2ccc(-c3cccnc3OC3CCOCC3)cc2F)cn1 [Example 654, 5-{2-Fluoro-4-[2-(tetrahydro-2H-pyran-4-yloxy)pyridin-3-yl]phenyl}pyrimidin-2-amine]	–
8.62	7.76	CCNS(=O)(=O)c1cc(C(F)(F)F)ccc1-c1cnc(-c2cnc(N)nc2)c(F)c1 [Example 674, 2-[6-(2-Aminopyrimidin-5-yl)-5-fluoropyridin-3-yl]-N-ethyl-5-(trifluoromethyl)benzenesulfonamide]	–
6.63	5.43	Nc1ncc(-c2ccc(-c3ccc(C(F)(F)F)cc3CN3CCOCC3)cn2)cn1 [Example 676, 5-{5-[2-(Morpholin-4-ylmethyl)-4-(trifluoromethyl)phenyl]pyridin-2-yl}pyrimidin-2-amine]	–
7.28	6.98	Nc1ncc(-c2ccc(-c3ccccc3S(=O)(=O)N3CCCCCC3)cn2)cn1 [Example 681, 5-{5-[2-(Azepan-1-ylsulfonyl)phenyl]pyridin-2-yl}pyrimidin-2-amine trifluoroacetic acid salt]	–
6.65	6.58	Nc1ncc(-c2ccc(-c3ccccc3S(=O)(=O)N3CCC(F)(F)CC3)cn2)cn1 [Example 682, 5-(5-{2-[(4,4-Difluoropiperidin-1-yl)sulfonyl]phenyl}pyridin-2-yl)pyrimidin-2-amine trifluoroacetic acid salt]	–
6.22	6.55	CCNS(=O)(=O)c1ccccc1-c1ccc(-c2cnc(N)nc2)nc1 [Example 683, 2-[6-(2-Aminopyrimidin-5-yl)pyridin-3-yl]-N-ethylbenzenesulfonamide trifluoroacetic acid salt]	–
7.33	6.87	Nc1ncc(-c2ccc(-c3ccccc3S(=O)(=O)NC(C3CC3)C3CC3)cn2)cn1 [Example 684, 2-[6-(2-Aminopyrimidin-5-yl)pyridin-3-yl]-N-(dicyclopropylmethyl)benzenesulfonamide trifluoroacetic acid salt]	–
7.28	6.94	C[C@H](NS(=O)(=O)c1ccccc1-c1ccc(-c2cnc(N)nc2)nc1)C(F)(F)F [Example 685, 2-[6-(2-Aminopyrimidin-5-yl)pyridin-3-yl]-N-[(1S)-2,2,2-trifluoro-1-methylethyl]benzenesulfonamide trifluoroacetic acid salt]	–
6.48	5.83	C[C@@H](NS(=O)(=O)c1ccccc1-c1ccc(-c2cnc(N)nc2)nc1)C(F)(F)F [Example 686, 2-[6-(2-Aminopyrimidin-5-yl)pyridin-3-yl]-N-[(1R)-2,2,2-trifluoro-1-methylethyl]benzenesulfonamide trifluoroacetic acid salt]	–
6.13	5.45	Nc1ncc(-c2ccc(-c3ccccc3S(=O)(=O)N3CCNC(=O)C3)cn2)cn1 [Example 687, 4-({2-[6-(2-Aminopyrimidin-5-yl)pyridin-3-yl]phenyl}sulonyl)piperazin-2-one]	–
6.16	5.93	C[C@H](O)CNS(=O)(=O)c1ccccc1-c1ccc(-c2cnc(N)nc2)nc1 [Example 688, 2-[6-(2-Aminopyrimidin-5-yl)pyridin-3-yl]-N-[(2S)-2-hydroxypropyl]benzenesulfonamide]	–
6.31	6.10	C[C@@H](O)CNS(=O)(=O)c1ccccc1-c1ccc(-c2cnc(N)nc2)nc1 [Example 689, 2-[6-(2-Aminopyrimidin-5-yl)pyridin-3-yl]-N-[(2R)-2-hydroxypropyl]benzenesulfonamide]	–
6.75	6.93	Nc1ncc(-c2ccc(-c3ccc(C(F)(F)F)cc3S(=O)(=O)NCCO)cn2)cn1 [Example 690, 2-[6-(2-Aminopyrimidin-5-yl)pyridin-3-yl]-N-(2-hydroxyethyl)-5-(trifluoromethyl)benzenesulfonamide]	–
7.27	6.96	CCNS(=O)(=O)c1cc(C(F)(F)F)ccc1-c1ccc(-c2cnc(N)nc2)nc1 [Example 692, 2-[6-(2-Aminopyrimidin-5-yl)pyridin-3-yl]-N-ethyl-5-(trifluoromethyl)benzenesulfonamide trifluoroacetic acid salt]	–
7.31	6.99	CC(C)(C)NS(=O)(=O)c1ccccc1-c1ccc(-c2cnc(N)nc2)nc1 [Example 693, 2-[6-(2-Aminopyrimidin-5-yl)pyridin-3-yl]-N-tert-butylbenzenesulfonamide]	–
6.17	6.00	C[C@H](CO)NS(=O)(=O)c1ccccc1-c1ccc(-c2cnc(N)nc2)nc1 [Example 694, 2-[6-(2-Aminopyrimidin-5-yl)pyridin-3-yl]-N-[(1R)-2-hydroxy-1-methylethyl]benzenesulfonamide]	–
8.06	6.95	COc1c(-c2ccc(C(F)(F)F)cc2)ccc(-c2cnc(N)cn2)c1F [Example 698, 5-(3-fluoro-2-methoxy-4′-(trifluoromethyl)-[1,1′-biphenyl]-4-yl)pyrazin-2-amine]	–

More lines, now with the values behind:

SMILES	pKi (human FLAP; wild type FLAP, HTRF format)	pIC50 [1]	pKi (human FLAP; [2])
N#CCOc1ccccc1-c1ccc(-c2cnc(N)cn2)c(F)c1 [Example 642, {[4′-(5-Aminopyrazin-2-yl)-3′-fluorobiphenyl-2-yl]oxy}acetonitrile]	7.10	6.01	–
N#CCOc1ccccc1-c1ccc(-c2cnc(N)nc2)c(F)c1 [Example 643, {[4′-(2-Aminopyrimidin-5-yl)-3′-fluorobiphenyl-2-yl]oxy}acetonitrile]	6.49	5.37	–
Nc1ncc(-c2ccc(-c3cccnc3O[C@H]3CC[C@H](N)CC3)cc2F)cn1 [Example 651, 5-(4-{2-[(trans-4-Aminocyclohexyl)oxy]pyridin-3-yl}-2-fluorophenyl)pyrimidin-2-amine]	6.51	5.81	–
Nc1cnc(-c2ccc(-c3cccnc3O[C@H]3CC[C@H](N)CC3)cc2F)cn1 [Example 652, 5-(4-{2-[(trans-4-Aminocyclohexyl)oxy]pyridin-3-yl}-2-fluorophenyl)pyrazin-2-amine formic acid salt]	7.20	6.07	–
Nc1ccc(-c2ccc(-c3ccccc3S(=O)(=O)N3CCOCC3)cc2F)cn1 [Example 660, 5-(3-Fluoro-2′-(morpholinosulfonyl)-[1,1′-biphenyl]-4-yl)pyridin-2-amine]	7.08	< 5.00	–
Nc1ccc(-c2ccc(-c3ccccc3S(=O)(=O)N3C[C@@H]4C[C@H]3CO4)cc2F)cn1 [Example 663, 5-(2′-((1S,4S)-2-Oxa-5-azabicyclo[2.2.1]heptan-5-ylsulfonyl)-3-fluoro-[1,1′-biphenyl]-4-yl)pyridin-2-amine]	8.24	7.46	–
CC(C)(CO)NS(=O)(=O)c1ccccc1-c1ccc(-c2ccc(N)nc2)c(F)c1 [Example 665, 4′-(6-Aminopyridin-3-yl)-3′-fluoro-N-(1-hydroxy-2-methylpropan-2-yl)-[1,1′-biphenyl]-2-sulfonamide]	8.59	7.65	–
CC(C)(CO)NS(=O)(=O)c1ccccc1-c1ccc(-c2cnc(N)c(F)c2)c(F)c1 [Example 667, 4′-(6-Amino-5-fluoropyridin-3-yl)-3′-fluoro-N-(1-hydroxy-2-methylpropan-2-yl)-[1,1′-biphenyl]-2-sulfonamide]	8.22	7.40	–
C[C@@H]([C@@H](O)c1ccccc1)N(C)S(=O)(=O)c1ccccc1-c1ccc(-c2cnc(N)c(F)c2)c(F)c1 [Example 669, 4′-(6-Amino-5-fluoropyridin-3-yl)-3′-fluoro-N-((1S,2S)-1-hydroxy-1-phenylpropan-2-yl)-N-methyl-[1,1′-biphenyl]-2-sulfonamide]	8.40	6.97	–
C[C@@H](O)CNS(=O)(=O)c1ccccc1-c1cnc(-c2cnc(N)nc2)c(F)c1 [Example 673, 2-[6-(2-Aminopyrimidin-5-yl)-5-fluoropyridin-3-yl]-N-[(2R)-2-hydroxypropyl]benzenesulfonamide]	6.87	6.99	–
CC(C)(C)NS(=O)(=O)c1ccccc1-c1cnc(-c2cnc(N)nc2)c(F)c1 [Example 675, 2-[6-(2-Aminopyrimidin-5-yl)-5-fluoropyridin-3-yl]-N-tert-butylbenzenesulfonamide]	9.15	7.26	–
Nc1ncc(-c2ccc(-c3ccccc3S(=O)(=O)N3CCCC(F)(F)C3)cn2)cn1 [Example 679, 5-(5-{2-[(3,3-Difluoropiperidin-1-yl)sulfonyl]phenyl}pyridin-2-yl)pyrimidin-2-amine trifluoroacetic acid salt]	–	6.69	6.88
Nc1ncc(-c2ccc(-c3ccccc3S(=O)(=O)N3CCC(F)(F)C3)cn2)cn1 [Example 680, 5-(5-{2-[(3,3-Difluoropyrrolidin-1-yl)sulfonyl]phenyl}pyridin-2-yl)pyrimidin-2-amine trifluoroacetic acid salt]	–	5.98	6.21
N#Cc1nc(-c2ccc(-c3ccccc3Oc3nccc(N)n3)cc2F)cnc1N [Example 695, 3-Amino-6-{2′-[(4-aminopyrimidin-2-yl)oxy]-3-fluorobiphehenyl-4-yl}pyrazine-2-carbonitrile trifluoroacetic acid salt]	8.08	6.47	–
Nc1cnc(-c2ccc(-c3ccc(Br)cc3F)cc2F)cn1 [Example 696, 5-(4′-Bromo-2′,3-difluorobiphenyl-4-yl)pyrazin-2-amine]	~6.60	5.48	–
